Results as given in ChEMBL document CHEMBL1143092, “Identification of novel benzimidazole series of potent and selective ORL1 antagonists” (Bioorg Med Chem Lett, 2008).

How the values were obtained:
[1] = molecular target: Kappa-type opioid receptor (Homo sapiens, UniProt P41145); assay: Displacement of [3H]U-69593 from human cloned kappa opioid receptor expressed in CHO cell membrane; format: cell membranes
Mu-type opioid receptor = Mu-type opioid receptor (Homo sapiens, UniProt P35372); assay: Displacement of [3H]diprenorphin from human cloned mu opioid receptor expressed in CHO cell membrane; format: cell membranes
Nociceptin receptor [2] = molecular target: T1, Nociceptin receptor (Homo sapiens, UniProt P41146); assay: Displacement of [125I]Tyr14-NC from human ORL1 receptor expressed in CHO cell membrane; format: cell membranes
Liver microsomes = assay: Metabolic stability in human liver microsomes; format: ADME, Microsome
Nociceptin receptor [3] = molecular target: T1, Nociceptin receptor; assay: Antagonist activity at human ORL1 receptor expressed in CHO cell membrane by [35S]GTP-gamma-S binding assay; format: functional, cell membranes
[4] = molecular target: Delta-type opioid receptor (Homo sapiens, UniProt P41143); assay: Displacement of [3H]naltrindole from human cloned delta opioid receptor expressed in CHO cell membrane; format: cell membranes
Delta-type opioid receptor, sequence (P41143 whole entry): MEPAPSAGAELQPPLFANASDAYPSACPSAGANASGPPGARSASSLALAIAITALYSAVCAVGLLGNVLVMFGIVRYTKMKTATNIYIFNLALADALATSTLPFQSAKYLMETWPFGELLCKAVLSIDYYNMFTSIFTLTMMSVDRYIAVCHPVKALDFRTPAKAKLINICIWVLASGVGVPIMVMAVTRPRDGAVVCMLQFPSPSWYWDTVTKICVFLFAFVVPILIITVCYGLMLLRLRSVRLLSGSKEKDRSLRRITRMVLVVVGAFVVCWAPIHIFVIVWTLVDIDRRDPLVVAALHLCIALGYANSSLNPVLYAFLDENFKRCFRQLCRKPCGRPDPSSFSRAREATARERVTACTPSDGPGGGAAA

Mu-type opioid receptor, sequence (P35372 whole entry): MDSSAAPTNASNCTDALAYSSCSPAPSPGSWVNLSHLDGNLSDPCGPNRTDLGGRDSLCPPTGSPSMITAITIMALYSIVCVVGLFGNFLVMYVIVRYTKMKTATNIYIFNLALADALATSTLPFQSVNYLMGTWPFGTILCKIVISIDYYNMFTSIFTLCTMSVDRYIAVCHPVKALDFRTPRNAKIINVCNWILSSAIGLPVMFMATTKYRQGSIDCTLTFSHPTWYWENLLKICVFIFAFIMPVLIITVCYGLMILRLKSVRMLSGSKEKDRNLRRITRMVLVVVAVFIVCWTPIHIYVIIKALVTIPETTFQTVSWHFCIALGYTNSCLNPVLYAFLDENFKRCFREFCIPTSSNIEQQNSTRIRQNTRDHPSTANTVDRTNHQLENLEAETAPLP
Kappa-type opioid receptor, sequence (P41145 whole entry): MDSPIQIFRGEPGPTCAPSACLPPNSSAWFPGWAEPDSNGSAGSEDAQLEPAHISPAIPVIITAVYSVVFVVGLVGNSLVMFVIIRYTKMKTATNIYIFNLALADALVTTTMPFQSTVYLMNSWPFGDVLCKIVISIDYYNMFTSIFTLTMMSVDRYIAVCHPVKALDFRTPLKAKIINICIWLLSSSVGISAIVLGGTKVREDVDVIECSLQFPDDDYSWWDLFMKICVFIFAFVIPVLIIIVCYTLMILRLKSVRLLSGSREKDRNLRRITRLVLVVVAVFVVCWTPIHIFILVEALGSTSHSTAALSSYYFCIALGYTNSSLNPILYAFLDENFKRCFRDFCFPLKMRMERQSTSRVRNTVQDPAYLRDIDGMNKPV
T1 sequence (P41146 whole entry): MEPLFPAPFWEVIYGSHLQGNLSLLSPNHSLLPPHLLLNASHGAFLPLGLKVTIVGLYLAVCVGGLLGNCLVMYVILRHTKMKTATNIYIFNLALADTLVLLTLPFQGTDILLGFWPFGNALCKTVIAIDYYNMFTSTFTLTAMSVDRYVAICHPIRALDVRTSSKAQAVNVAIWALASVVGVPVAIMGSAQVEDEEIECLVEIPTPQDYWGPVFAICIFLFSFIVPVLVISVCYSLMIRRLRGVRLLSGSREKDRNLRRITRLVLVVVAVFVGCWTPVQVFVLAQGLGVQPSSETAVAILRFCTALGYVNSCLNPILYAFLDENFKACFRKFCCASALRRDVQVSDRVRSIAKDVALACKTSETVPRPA

IC50 [1] [nM] | IC50 (Mu-type opioid receptor) [nM] | IC50 [4] [nM] | Structure (SMILES) | IC50 (Nociceptin receptor [2]) [nM] | Stability (Liver microsomes) [%] | IC50 (Nociceptin receptor [3]) [nM]
60 | 3100 |  | CC(C)Sc1nc2cc(Cl)c(N3CCN(CCO)CC3)cc2[nH]1 | 120 |  | 
 |  |  | CCC(CC)Sc1nc2cc(Cl)c(N3CCN(CC)CC3)cc2[nH]1 | 10 | 31 | 3.9
 |  |  | Fc1cc2nc(SCc3ccccc3Cl)[nH]c2cc1N1CCNCC1 | 23 |  | 380
88 | 1400 |  | CC1(Sc2nc3cc(Cl)c(N4CCN(CCO)CC4)cc3[nH]2)CCCCC1 | 1.8 |  | 1.8
31 | 520 |  | OCCN1CCN(c2cc3[nH]c(SC4CCCCC4)nc3cc2Cl)CC1 | 20 |  | 20
120 | 4400 |  | CC(C)(C)Sc1nc2cc(Cl)c(N3CCN(CCO)CC3)cc2[nH]1 | 17 |  | 21
 |  |  | Fc1cc2nc(SCc3cccc(Cl)c3Cl)[nH]c2cc1N1CCNCC1 | 6 |  | 140
 |  |  | Fc1ccc(CSc2nc3cc(F)c(N4CCN(CC5CCCCCCC5)CC4)cc3[nH]2)cc1 | > 10000 |  | 
 |  |  | O=S(=O)(Cc1cccc(Cl)c1Cl)c1nc2cc(F)c(N3CCNCC3)cc2[nH]1 | 240 |  | 
 |  |  | Fc1ccc(CSc2nc3cc(F)c(N4CCN(Cc5ccccc5)CC4)cc3[nH]2)cc1 | 8200 |  | 
 |  |  | Fc1cc2nc(SCC3CCCCC3)[nH]c2cc1N1CCNCC1 | 17 |  | 930
 |  |  | Fc1cc2nc(SCc3ccccc3)[nH]c2cc1N1CCNCC1 | 140 |  | 
 |  |  | [O-][S+](Cc1cccc(Cl)c1Cl)c1nc2cc(F)c(N3CCNCC3)cc2[nH]1 (centres undefined) | 2900 |  | 
60 | 3100 | > 1000 | CCC(CC)Sc1nc2cc(Cl)c(N3CCN(CCO)CC3)cc2[nH]1 | 9.7 | 51 | 3.3
 |  |  | CSc1nc2cc(F)c(N3CCNCC3)cc2[nH]1 | 2900 |  | 
 |  |  | CN1CCN(c2cc3[nH]c(SCc4ccc(F)cc4)nc3cc2F)CC1 | 910 |  | 
 |  |  | Cc1ccc(CSc2nc3cc(F)c(N4CCNCC4)cc3[nH]2)cc1 | 31 |  | 
 |  |  | CCC(CC)Sc1nc2cc(C(C)=O)c(N3CCNCC3)cc2[nH]1 | 3100 |  | 
 |  |  | CCC(CC)Sc1nc2ccc(N3CCNCC3)cc2[nH]1 | 320 |  | 
 |  |  | Fc1ccc(CSc2nc3cc(F)c(N4CCNCC4)cc3[nH]2)cc1 | 63 |  | 
 |  |  | CCC(CC)Sc1nc2cc(C#N)c(N3CCNCC3)cc2[nH]1 | 15 |  | 78
 |  |  | CCC(CC)Sc1nc2cc(F)c(N3CCNCC3)cc2[nH]1 | 4.7 |  | 690
 |  |  | Cc1ccccc1CSc1nc2cc(F)c(N3CCNCC3)cc2[nH]1 | 78 |  | 1700
170 | 2800 | > 1000 | CCC(C)(CC)Sc1nc2cc(Cl)c(N3CCN(CCO)CC3)cc2[nH]1 | 1.2 |  | 0.66
 |  |  | Cc1cccc(CSc2nc3cc(F)c(N4CCNCC4)cc3[nH]2)c1 | 180 |  | 
 |  |  | Fc1cc2nc(SCc3c(Cl)cccc3Cl)[nH]c2cc1N1CCNCC1 | 55 |  | 2700
160 | 3500 |  | CCC(C)(C)Sc1nc2cc(Cl)c(N3CCN(CCO)CC3)cc2[nH]1 | 5.6 |  | 2.5
